Results taken from PMC7866262, “Laccase-Catalyzed 1,4-Dioxane-Mediated Synthesis of Belladine N-Oxides with Anti-Influenza A Virus Activity” (International Journal of Molecular Sciences, 2021).
Read-outs that look alike come from different tables or passages of the source.

Legend:
[1] = test system: influenza A/Puerto Rico/8/34 H1N1 (PR8) virus; assay: microbe, parasite or virus in culture; assay type: cell-based; settings: for IC50: Influenza A virus
[2] = test system: influenza A/Puerto Rico/8/34 H1N1 (PR8) virus; assay: microbe, parasite or virus in culture; assay type: cell-based; settings: for IC50: Influenza A virus, 24 h, read-out: IC50 (concentration of compound causing 50% reduction of viral infection)
[3] = in vitro; settings: human
[4] = in vitro; settings: dog
[5] = test system: influenza A/Puerto Rico/8/34 H1N1 (PR8) virus; assay type: cell-based
[6] = A549, 24 h, read-out: IC50 (concentration of compound causing 50% reduction of viral infection)

Row | SMILES | IC50 [1, 6] [µM] | IC50 [2] [µM] | CC50 at 24 h [3] [µM] | CC50 [4] [µM] | antiviral activity against influenza A virus (in words) [1] | CC50 [3] [µM] | IC50 ([1]; A549, read-out: IC50 range against viral replication) [µg/mL] | foci of infection in cell monolayers [5] | SI (Selectivity Index, CC50/IC50) [2]
1 | C[N+]([O-])(CCc1ccc(O)cc1)Cc1ccc(O)cc1 (stereo not drawn) [Compound 12c, N-(4-Hydroxybenzyl)-2-(4-Hydroxyphenyl)-N-Methylethan-1-Amine Oxide] | 80.2 ± 4.9 | 84.7 ± 4.8 | 83.8 ± 5 | 114 ± 5.2 | – | – | – | – | –
2 | COc1cc(Br)c(C[N+](C)([O-])CCc2ccc(O)cc2)cc1O (stereo not drawn) [Compound 9, N-(2-Bromo-5-Hydroxy-4-Methoxybenzyl)-2-(4-Hydroxyphenyl)-N-Methylethan-1-Amine Oxide] | 377 ± 11.4 | 86.8 ± 5.1 | 211 ± 8.1 | 206 ± 7.9 | – | – | – | – | –
3 | C[N+]([O-])(CCc1ccc(O)cc1)Cc1ccc([N+](=O)[O-])c(O)c1 (stereo not drawn) [Compound 12d, N-(3-Hydroxy-4-Nitrobenzyl)-2-(4-Hydroxyphenyl)-N-Methylethan-1-Amine Oxide] | 1240 ± 30.2 | 70.2 ± 4 | – | 101 ± 4.9 | deprived the molecule of antiviral activity | 113 ± 6.1 | – | – | –
4 | C[N+]([O-])(CCCc1ccccc1)Cc1cccc(O)c1 (stereo not drawn) [Compound 12h, N-(3-Hydroxybenzyl)-N-Methyl-3-Phenylpropan-1-Amine Oxide] | 70.4 ± 3.1 | 73.2 ± 3.3 | – | 221 ± 8.9 | – | 287 ± 8.3 | 70 to 73 | reduction of foci of infection | –
5 | COc1ccc(C[N+](C)([O-])CCc2ccc(O)cc2)cc1O (stereo not drawn) [Compound 12a, N-(3-Hydroxy-4-Methoxybenzyl)-2-(4-Hydroxyphenyl)-N-Methylethan-1-Amine Oxide] | 78.8 ± 4.3 | 137 ± 5.9 | 200 ± 7.1 | 137 ± 5.8 | – | – | – | – | –
6 | C[N+]([O-])(CCc1ccc(O)cc1)Cc1cccc(O)c1 (stereo not drawn) [Compound 12b, N-(3-hydroxybenzyl)-2-(4-hydroxyphenyl)-N-methylethan-1-amine oxide] | 83.2 ± 5.1 | 138 ± 6.1 | 149 ± 6.2 | 129 ± 6 | – | – | – | – | –
7 | C[N+]([O-])(CCc1ccc(O)cc1)Cc1ccccc1 (stereo not drawn) [Compound 12e, N-Benzyl-2-(4-Hydroxyphenyl)-N-Methylethan-1-Amine Oxide] | – | 133 ± 5.8 | – | 109 ± 5.1 | – | – | – | – | 0.81
